Like-named read-outs stand apart in the source and are kept apart here.

The subject of series [1] is methicillin-resistant S. aureus (MRSA) strain USA 300. The series can be described thus: Hollow fiber pharmacodynamic model, resistance potential. In kind it is cell-based. As for the experimental part: A hollow fiber model was used to evaluate CEM-102 resistance potential in methicillin-resistant S. aureus (MRSA) strain USA 300 (Network of Antimicrobial Resistance in Staphylococcus aureus (NARSA), Chantilly, Va.). USA 300 is a highly virulent strain of MRSA and is the most common community-associated MRSA isolate in the USA. MIC values were determined in accordance with Clinical and Laboratory Standards Institute (CLSI).
The hollow fiber model comprised a two-compartment hollow fiber model (Louie et al. Antimicrob Agents Chemother 52:2486-2496(2008)) consisting of a volume of 15 mL in the central compartment, with multiple ports for the removal of broth, delivery of antibiotics, and collection of bacterial and antimicrobial samples. […] All experiments were performed in duplicate.
Hollow fibers contain 15 ml of media was prepared and inoculated with 10^6 colony forming units (CFU)/mL USA 300 bacteria. One of three different dosing regimens of […] was then applied to the fibers: (1) […] q12h; (2) 1200 mg/ml×2, followed by […], q12h; (3) 1500 mg/ml×2, followed by […], q12h.

Series [2] can be described thus: Single oral dose bioavailability study, fed/fasted crossover, plasma fusidic acid. The note with it: human, in vivo, 500 mg, 500 mg single oral dose; for AUC(0-t): read-out: AUC0-t, geometric mean (CV %); for AUC(0-inf): read-out: AUCinf, geometric mean (CV %); for Cmax: read-out: Cmax, geometric mean (CV %); for half-life: read-out: t1/2, arithmetic mean ± SD (converted); for AUC: read-out: total exposure (AUC). As for the experimental part:
This was a single-center, Phase 1, double-blind, randomized, 3 period, fed/fasted crossover bioequivalence study designed to evaluate the relative bioavailability and safety and tolerability of a single oral dose of CEM-102 500 mg compared to Fucidin® 500 mg in healthy subjects.
Subjects were randomized in equal numbers to the 4 treatment sequences (Table 3).
Study Period 1, 2, and 3 (Days 1, 15, and 29): One dose of study drug 500 mg (2×250 mg) of CEM-102 or Fucidin® was given at 8:00 AM (˜30 minutes). On Day 1 of Study Periods 1 and 2 (Days 1 and 15), subjects fasted overnight for at least 10 hours prior to dosing. On Day 1 of Study Period 3 (Day 29), subjects were given a high fat caloric meal which was to be entirely consumed within 30 minutes prior to study drug administration.
Blood samples for assay of plasma concentrations were collected on Days 1, 15 and 29 at pre-dose and 0.5, 1, 1.5, 2, 2.5, 3, 3.5, 4, 6, 8, 12, 16, 24, 36, and 48 hours after the dose. Plasma concentrations were assayed at MicroConstants, Inc. in San Diego, Calif. using a validated liquid chromatography with dual tandem mass spectrometry (LC/MS/MS) method with a lower limit of quantitation (LLOQ) of 20.0 ng/mL

Usually Cmax stands for the maximum level reached in the sampled fluid or tissue. The term AUC denotes the area under the concentration-time curve, a measure of exposure. Turning to `CC(=O)O[C@H]1C[C@@]2(C)[C@@H](C[C@@H](O)[C@H]3[C@@]4(C)CC[C@@H](O)[C@@H](C)[C@@H]4CC[C@@]32C)/C1=C(\CCC=C(C)C)C(=O)O` [CEM-102, Sodium fusidate], in series [1] (1200 mg×2 then 600 mg q12h), the “reduction of bacterial counts” value is recorded as 2 logs. Moreover, the “time until which resistance was suppressed” value in series [1] (1500 mg×2 then 600 mg q12h) is on record as > 72 h. In addition, in series [2] (fasting), the AUC(0-t) worked out at 300 µg·h/mL, the AUC(0-inf) was found to be 318 µg·h/mL, the Cmax turned out to be 27400 ng/mL and the half-life is 11.8 ± 2.2 h. Further, in series [2] (fasting), the AUC was ~318 µg·h/mL. Besides, in series [2] (fed), the AUC(0-t) is 269 µg·h/mL, the AUC(0-inf) is 285 µg·h/mL, the Cmax was 21200 ng/mL and the half-life was 11.5 ± 2.75 h. Further, in series [2] (fed), the area under the curve (AUC) is ~285 µg·h/mL.

The values are drawn from patent US8450300B2 (priority 2009, dated 2013).
